Results as given in US8389557B2, “Triazole derivatives useful as Axl inhibitors” (Rigel Pharmaceuticals, Inc., priority 2005, dated 2013).

Molecular target: T1, Axl (Homo sapiens, UniProt P30530)
T1 construct: endogenous in cells; host or cells: HeLa cells
T1 sequence (P30530 26-894): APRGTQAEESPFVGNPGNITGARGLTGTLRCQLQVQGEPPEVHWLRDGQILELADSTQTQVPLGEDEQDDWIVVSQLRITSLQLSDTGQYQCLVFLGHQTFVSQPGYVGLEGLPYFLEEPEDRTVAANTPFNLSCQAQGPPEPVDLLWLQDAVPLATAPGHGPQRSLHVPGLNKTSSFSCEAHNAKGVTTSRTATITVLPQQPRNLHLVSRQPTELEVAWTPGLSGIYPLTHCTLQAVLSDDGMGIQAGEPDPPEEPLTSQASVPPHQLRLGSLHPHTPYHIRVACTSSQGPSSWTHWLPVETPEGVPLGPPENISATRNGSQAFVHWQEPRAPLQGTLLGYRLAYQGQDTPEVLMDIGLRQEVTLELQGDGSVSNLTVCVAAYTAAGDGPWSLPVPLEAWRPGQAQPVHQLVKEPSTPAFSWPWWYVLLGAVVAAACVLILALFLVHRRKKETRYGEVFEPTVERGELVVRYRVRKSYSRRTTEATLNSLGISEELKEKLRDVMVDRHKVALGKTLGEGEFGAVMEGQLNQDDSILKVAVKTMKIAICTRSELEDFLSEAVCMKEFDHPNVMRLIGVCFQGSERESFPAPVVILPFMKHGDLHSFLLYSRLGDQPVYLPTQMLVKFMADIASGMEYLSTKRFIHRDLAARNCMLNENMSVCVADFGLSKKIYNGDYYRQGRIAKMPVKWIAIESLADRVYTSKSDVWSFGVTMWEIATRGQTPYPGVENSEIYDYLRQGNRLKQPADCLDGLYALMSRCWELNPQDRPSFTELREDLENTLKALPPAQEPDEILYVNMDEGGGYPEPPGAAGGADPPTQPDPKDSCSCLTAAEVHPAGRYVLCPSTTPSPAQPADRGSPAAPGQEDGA
Experiment: Phospho-Akt in-cell Western assay (inhibition of Axl activity)
Format: cell-based
Method in brief: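 HeLa cells on poly-L-lysine, starved 24 h in 0.5% FCS DMEM with Axl/Fc 500 ng/mL, pre-treated with compound 1 h at 37° C. Axl stimulated 5 min by anti-Axl/anti-mouse antibody cross-linking. Fixed cells probed with anti-phospho-Akt and HRP secondary, chemiluminescence read.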

[1] = Table 5, Hela cells, Axl antibody cross-linking stimulation, phospho-Akt chemiluminescence
[2] = inhibition of Axl activity, Table 1
[3] = Table 2, Hela cells, Axl antibody cross-linking stimulation, phospho-Akt chemiluminescence

IC50 [2] [µM] | SMILES | other results
– | Cc1cccc(C(=O)n2nc(Nc3ccc4oc(COC5CCCCO5)cc4c3)nc2N)c1 (stereo not shown) [compound 130, 5-amino-3-[N-(2-(tetrahydropyran-2-yloxy)methylbenzofuran-5-yl)-amino]-1-(3-(methyl)phenyl)carbonyl-1H-1,2,4-triazole] | IC50 [1]: 1 to 10 µM
> 20 | Cc1ccc(Nc2nc(N)n(C(=O)c3ccc(C)cc3)n2)cc1 [compound 131, 5-amino-3-[4-(methyl)phenylamino]-1-(4-(methyl)phenyl)carbonyl-1H-1,2,4-triazole] | –
1 to 10 | COc1ccc(Nc2nc(N)n(C(=O)c3ccc(C)cc3)n2)cc1 [compound 132, 5-amino-3-[4-(methoxy)phenylamino]-1-(4-(methyl)phenyl)carbonyl-1H-1,2,4-triazole] | –
1 to 10 | Cc1ccc(C(=O)n2nc(Nc3cccc(C)c3)nc2N)cc1 [compound 133, 5-amino-3-[3-(methyl)phenylamino]-1-(4-(methyl)phenyl)carbonyl-1H-1,2,4-triazole] | –
1 to 10 | COc1cccc(Nc2nc(N)n(C(=O)c3ccc(C)cc3)n2)c1 [compound 134, 5-amino-3-[3-(methoxy)phenylamino]-1-(4-(methyl)phenyl)carbonyl-1H-1,2,4-triazole] | –
1 to 10 | COC(=O)COc1cccc(Nc2nc(N)n(C(=O)c3ccc(OC(C)C)cc3)n2)c1 [compound 135, 5-amino-1-(4-(iso-propoxy)phenyl)carbonyl-3-[3-(methoxycarbonylmethoxy)phenylamino]-1H-1,2,4-triazole] | –
– | Cc1cccc(C(=O)n2nc(Nc3ccc4oc(CO)cc4c3)nc2N)c1 [compound 136, 5-amino-3-(2-(hydroxymethyl)benzofuran-5-yl)amino-1-(3-(methyl)phenyl)carbonyl-1H-1,2,4-triazole] | IC50 [1]: 1 to 10 µM
> 20 | Cc1ccc(C(=O)n2nc(Nc3ccccc3)nc2N)cc1 [compound 137, 5-amino-1-(4-(methyl)phenyl)carbonyl-3-phenylamino-1H-1,2,4-triazole] | –
1 to 10 | COC(=O)COc1cccc(C(=O)n2nc(Nc3ccc4c(c3)OCCO4)nc2N)c1 [compound 138, 5-amino-3-(1,4-benzodioxan-6-yl)amino-1-[3-(methoxycarbonylmethoxy)phenyl)carbonyl-1H-1,2,4-triazole] | –
> 20 | CC(C)Oc1ccc(C(=O)n2nc(Nc3cccc(OCC(F)(F)F)c3)nc2N)cc1 [compound 139, 5-amino-1-(4-(iso-propoxy)phenyl)carbonyl-3-[3-(2,2,2-trifluoroethoxy)phenylamino]-1H-1,2,4-triazole] | –
1 to 10 | Nc1nc(Nc2ccc3c(c2)OCCO3)nn1C(=O)c1ccc(OCc2ccccc2)cc1 [compound 142, 5-amino-1-(4-(benzyloxy)phenyl)carbonyl-3-(1,4-benzodioxan-6-yl)amino-1H-1,2,4-triazole] | –
> 20 | COc1ccccc1Nc1nc(N)n(C(=O)c2ccc(C)cc2)n1 [compound 143, 5-amino-3-[2-(methoxy)phenylamino]-1-(4-(methyl)phenyl)carbonyl-1H-1,2,4-triazole] | –
> 20 | Cc1ccc(C(=O)n2nc(Nc3ccccc3C)nc2N)cc1 [compound 144, 5-amino-3-[2-(methyl)phenylamino]-1-(4-(methyl)phenyl)carbonyl-1H-1,2,4-triazole] | –
1 to 10 | CNC(=O)COc1cccc(Nc2nc(N)n(C(=O)c3cccc(C)c3)n2)c1 [compound 146, 5-amino-3-[3-(methylaminocarbonylmethoxy)phenylamino]-1-(3-(methyl)phenyl)carbonyl-1H-1,2,4-triazole] | –
1 to 10 | COC(=O)COc1cccc(Nc2nc(N)n(C(=O)c3cccc(C)c3)n2)c1 [compound 147, 5-amino-3-[3-(methoxycarbonylmethoxy)phenylamino]-1-(3-(methyl)phenyl)carbonyl-1H-1,2,4-triazole] | –
1 to 10 | Cc1cccc(C(=O)n2nc(Nc3cccc(OCC(=O)NCC4COC(C)(C)O4)c3)nc2N)c1 (stereo not shown) [compound 148] | –

IC50 [2] [µM] | SMILES | other results
1 to 10 | Nc1nc(Nc2ccc3c(c2)OCCO3)nn1C(=O)c1ccc(OCCN2CCOCC2)cc1 [compound 149, 5-amino-3-(1,4-benzodioxan-6-yl)amino-1-[4-[2-(morpholin-4-yl)ethoxy]phenyl]carbonyl-1H-1,2,4-triazole] | –
> 20 | Nc1nc(Nc2ccc3c(c2)OCCO3)nn1C(=O)c1cccc(OCCN2CCOCC2)c1 [compound 150, 5-amino-3-(1,4-benzodioxan-6-yl)amino-1-[3-[2-(morpholin-4-yl)ethoxy]phenyl]carbonyl-1H-1,2,4-triazole] | –
> 20 | CC(C)Oc1ccc(C(=O)n2nc(Nc3ccc(OCC(F)(F)F)cc3)nc2N)cc1 [compound 152, 5-amino-1-(4-(iso-propoxy)phenyl)carbonyl-3-[4-(2,2,2-trifluoroethoxy)phenylamino]-1H-1,2,4-triazole] | –
1 to 10 | Cc1cccc(C(=O)n2nc(Nc3cccc(OCC(=O)NCC(O)CO)c3)nc2N)c1 (stereo not shown) [compound 153, 5-amino-3-[3-(N-(2,3-dihydroxypropyl)amino)carbonylmethoxy]-phenylamino-1-(3-(methyl)phenyl)carbonyl-1H-1,2,4-triazole] | –
– | Cc1cccc(C(=O)n2nc(Nc3ccc4[nH]ncc4c3)nc2N)c1 [compound 154, 5-amino-3-(indazol-5-yl)amino-1-(3-(methyl)phenyl)carbonyl-1H-1,2,4-triazole] | IC50 [1]: 1 to 10 µM
– | Nc1nc(Nc2ccc3c(c2)OCCO3)n(C(=O)c2cccc(OCc3ccccc3)c2)n1 [compound 155, 3-amino-1-(3-(benzyloxy)phenyl)carbonyl-5-(1,4-benzodioxan-6-yl)amino-1H-1,2,4-triazole] | IC50 [3]: > 20 µM
10 to 20 | Nc1nc(Nc2ccc3c(c2)OCCO3)nn1C(=O)c1cccc(OCc2ccccc2)c1 [compound 156, 5-amino-1-(3-(benzyloxy)phenyl)carbonyl-3-(1,4-benzodioxan-6-yl)amino-1H-1,2,4-triazole] | –
1 to 10 | COC(=O)COc1ccc(Nc2nc(N)n(C(=O)c3ccc(OC(C)C)cc3)n2)cc1 [compound 157, 5-amino-1-(4-(iso-propoxy)phenyl)carbonyl-3-[4-(methoxycarbonylmethoxy)phenylamino]-1H-1,2,4-triazole] | –
1 to 10 | CC(C)Oc1ccc(C(=O)n2nc(Nc3ccc(OCCC4OCCO4)cc3)nc2N)cc1 [compound 158, 5-amino-3-[4-[2-(1,3-dioxolan-2-yl)ethoxy]phenylamino]-1-(4-(iso-propoxy)phenyl)carbonyl-1H-1,2,4-triazole] | –
< 1 | CC(C)Oc1ccc(C(=O)n2nc(Nc3ccc(OCCN4CCOCC4)cc3)nc2N)cc1 [compound 159] | –
– | Cc1cccc(C(=O)n2nc(Nc3ccc4cn[nH]c4c3)nc2N)c1 [compound 160, 5-amino-3-(indazol-6-yl)amino-1-(3-(methyl)phenyl)carbonyl-1H-1,2,4-triazole] | IC50 [1]: 1 to 10 µM
– | Cc1cccc(C(=O)n2nc(Nc3ccc4c(c3)NC(=O)CO4)nc2N)c1 [compound 161, 5-amino-3-(benzo[b][1,4]oxazin-3(4H)-on-6-yl)amino-1-(3-(methyl)phenyl)carbonyl-1H-1,2,4-triazole] | IC50 [1]: > 20 µM
1 to 10 | Nc1nc(Nc2ccc3c(c2)OCCO3)nn1C(=O)c1ccc(O)cc1 [compound 162, 5-amino-3-(1,4-benzodioxan-6-yl)amino-1-(4-(hydroxy)phenyl)carbonyl-1H-1,2,4-triazole] | –
< 1 | CC(C)Oc1ccc(C(=O)n2nc(Nc3ccc(OCCN4CCCCC4)cc3)nc2N)cc1 [compound 163] | –
– | Cc1cccc(C(=O)n2nc(N)nc2Nc2cccc(OCC(=O)NC3CCCCC3)c2)c1 [compound 164, 3-amino-5-[3-[cyclohexylaminocarbonylmethoxy]phenylamino]-1-(3-(methyl)phenyl)carbonyl-1H-1,2,4-triazole] | IC50 [3]: > 20 µM
> 20 | Cc1cccc(C(=O)n2nc(Nc3cccc(OCC(=O)NC4CCCCC4)c3)nc2N)c1 [compound 165, 5-amino-3-[3-[cyclohexylaminocarbonylmethoxy]phenylamino]-1-(3-(methyl)phenyl)carbonyl-1H-1,2,4-triazole] | –

SMILES | IC50 [2] [µM] | other results
CC(C)Oc1ccc(C(=O)n2nc(Nc3ccc(OC4CCCC4)cc3)nc2N)cc1 [compound 151, 5-amino-3-[4-(cyclopentoxy)phenylamino]-1-(4-(iso-propoxy)phenyl)carbonyl-1H-1,2,4-triazole] | > 20 | –
Nc1nc(Nc2ccc3c(c2)OCCO3)nn1C(=O)c1cccc(O)c1 [compound 166, 5-amino-3-(1,4-benzodioxan-6-yl)-amino-1-(3-(hydroxy)phenyl)carbonyl-1H-1,2,4-triazole] | 1 to 10 | –
